Several values for one entry are separate records, joined by “and”; a condition that tells them apart may be missing. Equal entries are not always repeated.
Key:
[1] = Phase 1: hematologic and hemolytic parameters in SCD patients; assay type: in vivo, human; conditions: blinded 300 mg Compound 1/placebo QD, individual patients Pt 1-3
From the text: Laboratory changes relative to pretreatment for each pt in the MD cohort as of Jul. In 2 of 3 SCD MD-1 pts treated with Compound 1/placebo (currently blinded), Hb increased by >1 g/dL, % reticulocytes decreased, and markers of hemolysis were improved after 14 days of treatment (compared to pre-treatment levels). Hematologic parameters returned to pre-treatment levels 4 to 7 days post-treatment (data not shown) without clinical AEs. […]

[2] = cited from earlier work

| SMILES | Hemoglobin ([1]; Day 7 (on Tx)) | Indirect Bilirubin ([1]; Day 7 (on Tx)) | Reticulocytes, % ([1]; Day 7 (on Tx)) | Hemoglobin ([1]; Day 14/15 (EOT)) | Indirect Bilirubin ([1]; Day 14/15 (EOT)) | Reticulocytes, % ([1]; Day 14/15 (EOT)) | steady state whole blood AUC higher in HbSC than HbSS genotype patients ([2]; HbSC n=11, HbSS n=220) [%] | steady state whole blood Cmax higher in HbSC than HbSS genotype patients ([2]; HbSC n=11, HbSS n=220) [%] | steady state plasma AUC higher in HbSC than HbSS genotype patients ([2]; human, in vivo) [%] | steady state plasma Cmax higher in HbSC than HbSS genotype patients ([2]; human, in vivo) [%] | increase of AUC in plasma with a high-fat, high-calorie meal ([2]; relative to fasted state) [%] | increase of AUC in whole blood with a high-fat, high-calorie meal ([2]; relative to fasted state) [%] | increase of Cmax in plasma with a high-fat, high-calorie meal ([2]; relative to fasted state) [%] | increase of Cmax in whole blood with a high-fat, high-calorie meal ([2]; relative to fasted state) [%] |
| --- | --- | --- | --- | --- | --- | --- | --- | --- | --- | --- | --- | --- | --- | --- |
| O=C([C@H](CO)c1ccccc1)N1CC2=C(C1)CN(S(=O)(=O)c1cnc3c(c1)OCCO3)C2 [Compound 1/Placebo] | 7.9 g/dL and 8.8 g/dL | 2.5 mg/dL and 0.9 mg/dL and 0.8 mg/dL | 6.8% and 5.8% | 7.5 g/dL and 9.2 g/dL | 3.0 mg/dL and 0.8 mg/dL and 1.0 mg/dL | 0.8% and 4.2% | – | – | – | – | – | – | – | – |
| CC(C)n1nccc1-c1ncccc1COc1cccc(O)c1C=O [voxelotor, 2-hydroxy-6-((2-(1-isopropyl-1H-pyrazol-5-yl)pyridin-3-yl)methoxy)benzaldehyde] | – | – | – | – | – | – | 50 | 45 | 23 | 15 | 42 | 42 | 95 | 45 |

From patent US20220087983A1, “ACTIVATING PYRUVATE KINASE R” (FORMA Therapeutics, Inc., priority 2020, published 2022)
